Measured values reported in PubChem BioAssay AID256 (DTP/NCI, 2004).
Where “and” joins values, the source holds several entries; their conditions need not be identical. Equal values may be shown once. Inconclusive results and toxic doses are left out.

Tested on: CD2F1 mice, L1210 leukemia ip, survival T/C
Assay: NCI In Vivo Anticancer Drug Screen. Data for tumor model L1210 Leukemia (intraperitoneal) in CD2F1 (CDF1) mice
Settings: higher = longer survival
Summary of the method: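 Vehicle-treated tumor-bearing mice served as controls (C) for compound-treated mice (T). Reported figure is T divided by C.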

Structure (SMILES)	T/C (endpoint: mean survival time, dose: 12.5 mg/kg/injection, schedule: Q04DX002 (ip), vehicle: saline)	T/C (endpoint: mean survival time, dose: 25.0 mg/kg/injection, schedule: Q04DX002 (ip), vehicle: saline)	T/C (endpoint: mean survival time, dose: 50.0 mg/kg/injection, schedule: Q04DX002 (ip), vehicle: saline)	T/C (endpoint: mean survival time, dose: 12.5 mg/kg/injection, schedule: Q01DX005 (ip), vehicle: distilled water + Tween-80)	T/C (endpoint: mean survival time, dose: 12.5 mg/kg/injection, schedule: Q01DX009 (ip), vehicle: distilled water + Tween-80)	T/C (endpoint: mean survival time, dose: 25.0 mg/kg/injection, schedule: Q01DX005 (ip), vehicle: distilled water + Tween-80)	T/C (endpoint: mean survival time, dose: 25.0 mg/kg/injection, schedule: Q01DX009 (ip), vehicle: distilled water + Tween-80)	T/C (endpoint: mean survival time, dose: 50.0 mg/kg/injection, schedule: Q01DX005 (ip), vehicle: distilled water + Tween-80)	T/C (endpoint: mean survival time, dose: 50.0 mg/kg/injection, schedule: Q01DX009 (ip), vehicle: distilled water + Tween-80)	T/C (endpoint: mean survival time, dose: 100.0 mg/kg/injection, schedule: Q01DX005 (ip), vehicle: distilled water + Tween-80)	T/C (endpoint: mean survival time, dose: 100.0 mg/kg/injection, schedule: Q01DX009 (ip), vehicle: distilled water + Tween-80)	T/C (endpoint: mean survival time, dose: 200.0 mg/kg/injection, schedule: Q01DX009 (ip), vehicle: distilled water + Tween-80)	T/C (endpoint: median survival time, dose: 12.5 mg/kg/injection, schedule: Q01DX009 (ip), vehicle: distilled water + Tween-80)	T/C (endpoint: median survival time, dose: 25.0 mg/kg/injection, schedule: Q01DX009 (ip), vehicle: distilled water + Tween-80)	T/C (endpoint: median survival time, dose: 50.0 mg/kg/injection, schedule: Q01DX009 (ip), vehicle: distilled water + Tween-80)	T/C (endpoint: median survival time, dose: 100.0 mg/kg/injection, schedule: Q01DX009 (ip), vehicle: distilled water + Tween-80)
C[N+](C)(C)CSSC[N+](C)(C)C	96 % of control	96 % of control	103 % of control													
Nc1nc(/C=C(/O)c2ccccc2)c2ncn(C3OC(CO)C(O)C3O)c2n1 (stereo unspecified)				103 % of control	89 % of control	114 % of control and 115 % of control	89 % of control	120 % of control	92 % of control	160 % of control	102 % of control	103 % of control	103 % of control	107 % of control	111 % of control	113 % of control
